Values joined by “and” are separate entries in the source; they are usually repeats but may differ in a detail not shown here. Identical values can stand only once.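 All cell lines were grown in 96-well plates and treated with compound for 48 hours. Abbreviation: GI50, concentration required for 50% inhibition of growth. TGI marks complete inhibition of growth.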 Active and inactive are the calls of the source. Rule as the data show it: active = GI50 below about 0.43 µM; inactive = the rest.
Assays:
Assay in all cases: NCI-60 cell line screen, 48 h
[1] = test system: MDA-N
[2] = test system: DLD-1 colon
[3] = test system: LXFL 529 NSCLC
[4] = test system: XF 498 CNS
[5] = test system: SNB-78 CNS
[6] = test system: DMS 114 small cell lung
[7] = test system: KM20L2 colon
[8] = test system: M19-MEL melanoma

| SMILES | TGI [1] [µM] | TGI [2] | TGI [3] [µM] | TGI [4] [µM] | TGI [5] | TGI [6] | TGI [7] [µM] | TGI [8] | also measured |
| --- | --- | --- | --- | --- | --- | --- | --- | --- | --- |
| O=c1[nH]c(=S)[nH]c(-c2ccccc2)c1Cc1c(O)ccc2ccccc12 | 89.5 | – | – | – | – | – | – | – | – |
| C#CCNC(=O)NC(CCCCNC(=O)OCc1ccccc1)C(=O)OCc1ccccc1 (stereo unspecified) | > 68.3 | > 100 µM | > 100 | 35.7 | 80.1 µM | > 100 µM | > 100 | 27.6 µM | – |
| COc1ccc(OC)c(Cc2cnc3nc(N)nc(N)c3c2C)c1 | > 57.7 | – | – | – | – | – | – | – | – |
| CCOC(=O)C(CCCNC(=O)OC(C)(C)C)N(Cc1ccc(OC)cc1OC)C(=O)CC(=O)CP(=O)(OCC)OCC (stereo unspecified) | – | > 100 µM | > 100 | – | – | > 100 µM | > 100 | > 100 µM | – |
| C[P+]1(c2ccccc2)CCCCC1 | – | > 100 µM | > 100 | – | > 100 µM | > 100 µM | > 100 | > 100 µM | – |
| CCc1ccccc1NC(=O)CC1NC(=O)CS1 (stereo unspecified) | – | > 100 µM | > 100 | > 100 | > 100 µM | > 100 µM | > 100 | > 100 µM | – |
| CN1CCCC1c1cccnc1.O=C(O)c1ccccc1O.O=C([O-])c1ccccc1[OH2+].O=C([O-])c1ccccc1[OH2+].[Mn+2] (stereo unspecified) | > 100 | – | – | – | – | – | – | – | GI50 [1]: > 100 µM |
| Cc1ccc(NC(=O)/C(C#N)=C/c2ccccc2)c(C)c1 | – | > 100 µM | > 100 | > 100 | > 100 µM | > 100 µM | > 100 | > 100 µM | – |
| N#CNC1=NC(N)C(c2nc3ccccc3[nH]2)=C(CCCC(=O)Nc2cccc([N+](=O)[O-])c2)N1 (stereo unspecified) | – | > 100 µM | > 100 | > 100 | – | > 100 µM | > 100 | > 100 µM | – |
| O=[N+]([O-])/C=C/c1ccc(Cl)cc1Cl | – | 84.4 µM | 27.1 | – | – | 35.8 µM | 42.1 | 19.5 µM | – |
| CC(=O)Nc1ccc(S(=O)(=O)NN(C)S(=O)(=O)c2ccc(C)cc2)cc1 | – | > 100 µM | – | – | – | > 100 µM | > 100 | > 100 µM | – |
| C/C(=N\NC(=S)N1CCN(c2ccccn2)CC1)c1ncccn1 | 14.8 | 4.98 µM and 14.3 µM | – | 13.8 | 23.1 µM | 0.271 µM and 1.08 µM | – | 2.67 µM and 11.2 µM | GI50 [2]: 0.0258 µM; GI50 [1]: 0.233 µM; GI50 [8]: 1.54 µM |
| Cn1nc(-c2ccccc2)c(C(=O)/C=C/c2ccc(Cl)cc2)c(N2CCOCC2)c1=O | – | 13.6 µM | 9.89 | – | – | 9.83 µM | 13.8 | 20.7 µM | – |
| CC(N)CC(=O)O (stereo unspecified) | – | > 5000 µM | > 5000 | – | > 5000 µM | > 5000 µM | > 5000 | > 5000 µM | – |
| CC1CCC2(C)C(CC=C(C=O)C2(O)C=O)C12CO2 (stereo unspecified) | – | – | 3.33 | 7.21 | 5.46 µM | 4.84 µM | 6.09 | 5.75 µM | – |
| Nc1nc(C(=O)O)c(N=Nc2ccccc2)c(=O)[nH]1 | > 100 | – | – | – | – | – | – | – | – |
| Cc1cc(O)c2c3c(ccc2c1)C(=O)c1c(O)cccc1C3=O | 0.353 | – | – | – | – | – | – | – | – |
| [Cl][Cu][Cl] | > 10 | – | – | – | – | – | – | – | GI50 [1]: > 10 µM |
| O=C(CO)C1CC2C=CC1C2 (stereo unspecified) | – | – | > 100 | > 100 | > 100 µM | > 100 µM | – | > 100 µM | – |

| SMILES | TGI [1] [µM] | TGI [2] | TGI [3] [µM] | TGI [4] [µM] | TGI [5] | TGI [6] | TGI [7] [µM] | TGI [8] | also measured |
| --- | --- | --- | --- | --- | --- | --- | --- | --- | --- |
| C=C1C=CC2(Br)OC3CC(C)(Cl)C(Br)CC13C2(C)C (stereo unspecified) | – | > 100 µM | > 100 | 27.9 | 61.7 µM | 32.4 µM | 49.7 | 44.9 µM | – |
| c1ccc(CN2COc3c(ccc4c5c(ccc34)CN(Cc3ccccc3)CO5)C2)cc1 | > 100 | > 100 µM | > 100 | – | > 100 µM | > 100 µM | > 100 | > 100 µM | – |
| CC(=O)CC(=O)CCC(=O)Nc1cccc(C(F)(F)F)c1 | – | > 100 µM | > 100 | > 100 | > 100 µM | > 100 µM | > 100 | – | – |
| Cc1nnc(N/N=C(/C(=O)C(C#N)c2ccc(Cl)cc2)C(C#N)c2ccc(Cl)cc2)n1N (stereo unspecified) | – | 42.4 µM | 26.6 | 46.6 | 51.3 µM | 31.4 µM | 41.2 | – | – |
| COc1c(CC=C(C)C)c(O)c(C(CC(C)C)c2c(O)c(CC=C(C)C)c(O)c(C(C)=O)c2O)c(O)c1C(C)=O (stereo unspecified) | 8.08 | 10.9 µM | – | 2.09 | 17.5 µM | 0.575 µM | – | 5.13 µM | – |
| CC(=O)[CH-]C(C)=O.CC(=O)[CH-]C(C)=O.CC(=O)[CH-]C(C)=O.[Ga+3] | – | > 100 µM | > 100 | > 100 | – | > 100 µM | > 100 | – | GI50 [2]: > 100 µM; GI50 [3]: > 100 µM; GI50 [4]: > 100 µM; GI50 [6]: > 100 µM; GI50 [7]: > 100 µM |
| Cc1ccc(S(=O)(=O)NC(=O)OC23COCN2COC3)cc1 | > 100 | – | – | – | – | – | – | – | – |
| CN(C)c1nc(N)c(C#N)c(C#N)c1C#N | > 10 | – | – | – | – | – | – | – | – |
| CC1=NNC(=S)NCCCN2CCN(CCCNC(=S)NN=C(C)C=NNC(=S)NCCCN3CCN(CCCNC(=S)NN=C1)CC3)CC2 | > 100 | – | – | – | – | – | – | – | – |
| c1ccc(-c2csc3ncn4cnnc4c23)cc1 | – | > 100 µM | > 100 | – | > 100 µM | > 100 µM | > 100 | > 100 µM | – |
| COc1c(OC(C)C)cc2cc(O)c(C(=O)NC3Cc4ccc(c(Cl)n4)O[C@@H]4C=C5C#C/C(=C\C#CC6OC56C4OC4CC(C)(O)C(O)C(C)O4)C(OC4CC(O)C(N(C)C)C(C)O4)COC3=O)cc2c1OC (stereo partly specified) | > 36.3 | 37.5 µg/mL | – | – | 37.5 µg/mL | 10.4 µg/mL | – | 37.5 µg/mL | GI50 [2]: 8.16 µg/mL; outcome [3]: inactive; outcome [4]: inactive; GI50 [5]: 37.5 µg/mL; GI50 [6]: 0.926 µg/mL; outcome [7]: inactive; GI50 [8]: 1.68 µg/mL |
| NC(=O)CC(N)c1nn[nH]n1 (stereo unspecified) | > 100 | – | – | – | – | – | – | – | – |
| O=c1[nH]c2ccccc2n1C1CCN(CCCC(c2ccc(F)cc2)c2ccc(F)cc2)CC1 | 21.4 | 13.9 µM | 13.4 | 11.6 | 32 µM | 6.52 µM | 5.87 | 13.1 µM | – |
| O=[N+]([O-])c1cc(Cc2cc([N+](=O)[O-])c3cccnc3c2O)c(O)c2ncccc12 | > 80 | – | – | – | – | – | – | – | – |
| N#C/C(=C1\OC(=N)C(c2ccc(Cl)cc2Cl)C1=O)c1ccc(Cl)cc1Cl (stereo unspecified) | – | > 100 µM | > 100 | > 100 | > 100 µM | > 100 µM | > 100 | > 100 µM | – |
| CC(C)(C)c1cc(C(=O)O)c2c(c1)C(=O)OC2(c1ccccc1)c1ccccc1C(=O)O (stereo unspecified) | – | > 100 µM | > 100 | > 100 | – | > 100 µM | > 100 | > 100 µM | – |
| O=C(c1c(O)cc(O)cc1O)C1Cc2ccccc21 (stereo unspecified) | – | > 100 µM | > 100 | – | > 100 µM | > 100 µM | > 100 | > 100 µM | – |
| CC(=O)OCC(CC[CH2][Sn]([Cl])([Cl])[c]1ccccc1)OC(C)=O (stereo unspecified) | – | 47.2 µM | 27 | 32.2 | 48.7 µM | – | 52 | 62.1 µM | GI50 [2]: 21.2 µM; GI50 [3]: 14 µM; GI50 [4]: 17.8 µM; GI50 [5]: 27.5 µM; GI50 [7]: 24.8 µM; GI50 [8]: 25.1 µM |
